The record followed here is patent publication EP0672658B1, “Antithrombotic agents” (priority 1994, dated 1995).

The target in one experiment is Human Thrombin (Homo sapiens, UniProt P00734). Description: biochemical. Conditions: read-out: Kass Human Thrombin (converted).
Another experiment addresses factor Xa (Homo sapiens, UniProt P00742). Description: biochemical. The conditions noted are these: read-out: Kass Xa (converted). The protocol: (§1) By substantially following the procedures described above for human thrombin, and using other human blood coagulation system serine proteases and proteases of the fibrinolytic system with the appropriate chromogenic substrates, identified below, selectivity of the compounds of the present invention with respect to the coagulation factor serine proteases and with respect to the fibrinolytic system serine proteases are evaluated as well as their substantial lack of interference with serine proteases of the fibrinolytic system. Thrombin inhibitors preferably should spare fibrinolysis induced by urokinase, tissue plasminogen activator (t-PA) and streptokinase. This would be important to the therapeutic use of such agents as an adjunct to streptokinase, t-PA or urokinase thrombolytic therapy and to the use of such agents as an endogenous fibrinolysis-sparing (with respect to t-PA and urokinase) antithrombotic agent. In addition to the lack of interference with the amidase activity of the fibrinolytic proteases, such fibrinolytic system sparing can be studied by the use of human plasma clots and their lysis by the respective fibrinolytic plasminogen activators.
(§2) Human factors X, Xa, IXa, XIa, and XIIa are purchased from Enzyme Research Laboratories, South Bend, Indiana; human urokinase from Leo Pharmaceuticals, Denmark; and recombinant activated Protein C (aPC) is prepared at Eli Lilly and Co. substantially according to U.S. Patent 4,981,952. Chromogenic substrates: N-Benzoyl-Ile-Glu-Gly-Arg-p-nitroanilide (for factor Xa); N-Cbz-D-Arg-Gly-Arg-p-nitroanilide (for factor IXa assay as the factor Xa substrate); Pyroglutamyl-Pro-Arg-p-nitroanilide (for Factor XIa and for aPC); H-D-Pro-Phe-Arg-p-nitroanilide (for factor XIIa); and Pyroglutamyl-Gly-Arg-p-nitroanilide (for urokinase); are purchased from KabiVitrum, Stockholm, Sweden, or from Midwest Biotech, Fishers, Indiana. Bovine trypsin is purchased from Worthington Biochemicals, Freehold, New Jersey, and human plasma kallikrein from Kabi Vitrum, Stockholm, Sweden. Chromogenic substrate H-D-Pro-Phe-Arg-p-nitroanilide for plasma kallikrein is purchased from Kabi Vitrum, Stockholm, Sweden. N-Benzoyl-Phe-Val-Arg-p-nitroanilide, the substrate for human thrombin and for trypsin, is synthesized according to procedures described above for the compounds of the present invention, using known methods of peptide coupling from commercially available reactants or purchased from Midwest Biotech, Fishers, Indiana.

The target in another experiment is T1, Trypsin (Bos taurus, UniProt P00760).
T1 sequence (P00760 24-246): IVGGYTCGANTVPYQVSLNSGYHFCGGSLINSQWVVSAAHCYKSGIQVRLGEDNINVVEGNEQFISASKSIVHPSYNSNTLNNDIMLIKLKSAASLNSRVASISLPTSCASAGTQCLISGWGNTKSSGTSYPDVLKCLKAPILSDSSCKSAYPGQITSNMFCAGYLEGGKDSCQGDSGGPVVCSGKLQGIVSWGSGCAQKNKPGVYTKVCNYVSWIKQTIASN
Description: biochemical. Set-up: species or system Bovine. The conditions noted are these: read-out: Kass Trypsin (converted). The protocol:
as §1, §2

In the next experiment the target is T2, Plasmin (Homo sapiens, UniProt P00747).
T2 construct: Human plasmin is purchased; purchased Boehringer Mannheim, Indianapolis, Indiana
T2 sequence (P00747 581-810 limits assumed): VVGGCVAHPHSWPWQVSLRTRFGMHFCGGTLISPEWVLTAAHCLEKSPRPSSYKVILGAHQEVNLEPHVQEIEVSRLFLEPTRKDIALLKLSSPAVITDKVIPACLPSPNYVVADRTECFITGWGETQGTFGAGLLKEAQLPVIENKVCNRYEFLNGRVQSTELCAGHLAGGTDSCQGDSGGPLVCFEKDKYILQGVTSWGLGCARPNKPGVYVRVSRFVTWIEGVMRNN
T2 sequence (P00747 97-580 partner limits assumed): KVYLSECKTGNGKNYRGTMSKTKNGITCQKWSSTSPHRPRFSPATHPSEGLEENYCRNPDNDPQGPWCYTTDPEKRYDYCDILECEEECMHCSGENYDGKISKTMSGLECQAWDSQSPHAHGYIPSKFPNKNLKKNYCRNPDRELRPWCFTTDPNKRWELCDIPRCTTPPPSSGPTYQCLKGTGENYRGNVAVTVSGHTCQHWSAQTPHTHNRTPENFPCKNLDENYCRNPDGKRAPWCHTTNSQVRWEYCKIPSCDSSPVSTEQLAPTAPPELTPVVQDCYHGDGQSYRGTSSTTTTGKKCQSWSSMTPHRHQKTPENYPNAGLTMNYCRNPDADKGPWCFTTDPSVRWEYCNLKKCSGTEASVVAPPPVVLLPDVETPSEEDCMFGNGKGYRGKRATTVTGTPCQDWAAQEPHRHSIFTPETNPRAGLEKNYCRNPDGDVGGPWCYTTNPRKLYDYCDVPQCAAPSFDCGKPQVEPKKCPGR
Nature of the experiment: biochemical. Conditions: read-out: Kass Plasmin (converted). How it is done: as §1
Human plasmin is purchased from Boehringer Mannheim, Indianapolis, Indiana; nt-PA is purchased as single chain activity reference from American Diagnostica, Greenwich, Connecticut; modified-t-PA6 (mt-PA6) is prepared at Eli Lilly and Company by procedure known in the art (See, Burck, et al., J. Biol. Chem., 265, […] (1990). Plasmin chromogenic substrate H-D-Val-Leu-Lys-p-nitroanilide and tissue plasminogen activator (t-PA) substrate H-D-Ile-Pro-Arg-p-nitroanilide are purchased from Kabi Vitrum, Stockholm, Sweden.

Experiment [1] has as its system human or animal plasma. Description: Anticoagulation determination in plasma: thrombin time (TT). The class given is biochemical. Conditions: concentration doubling thrombin time. The protocol: (§3) Dog plasma and rat plasma is obtained from conscious mixed-breed hounds (either sex, Hazelton-LRE, Kalamazoo, Michigan, U.S.A.) or from anesthetized male Sprague-Dawley rats (Harlan Sprague-Dawley, Inc., Indianapolis, Indiana, U.S.A.) by venipuncture into 3.8 percent citrate. Fibrinogen is prepared from in-date ACD human blood as the fraction I-2 according to previous procedures and specifications. Smith, Biochem. J., 185, 1-11 (1980); and Smith, et al., Biochemistry, 11, 2958-2967 (1972). Human fibrinogen is also purchased as 98 percent pure/plasmin free from American Diagnostica, Greenwich, Connecticut. Coagulation reagents ACTIN, Thromboplastin, and Human plasma are from Baxter Healthcare Corp., Dade Division, Miami, Florida. Bovine thrombin from Parke-Davis (Ann Detroit, Michigan) is used for coagulation assays in plasma.
(§4) Coagulation assay procedures are as previously described. Smith, et al., Thrombosis Research, 50, 163-174 (1988). A CoAScreener coagulation instrument (American LABor, Inc.) is used for all coagulation assay measurements. The prothrombin time (PT) is measured by adding 0.05 mL saline and 0.05 mL Thromboplastin-C reagent to 0.05 mL test plasma. The activated partial thromboplastin time (APTT) is measured by incubation of 0.05 mL test plasma with 0.05 mL Actin reagent for 120 seconds followed by 0.05 mL CaCl2 (0.02 M). The thrombin time (TT) is measured by adding 0.05 mL saline and 0.05 mL thrombin (10 NIH units/mL) to 0.05 mL test plasma. The compounds of Formula I are added to human or animal plasma over a wide range of concentrations to determine prolongation effects on the APTT, PT, and TT assays. Linear extrapolations are performed to estimate the concentrations required to double the clotting time for each assay.

The test system of experiment [2] is human or animal plasma. Description: Anticoagulation determination in plasma: activated partial thromboplastin time (APTT). It is filed as biochemical. The conditions noted are these: concentration doubling activated partial thromboplastin time. The protocol: as §3, §4
Experiment [3] has as its system human or animal plasma. Nature of the experiment: Anticoagulation determination in plasma: prothrombin time (PT). The conditions noted are these: concentration doubling prothrombin time. It is filed as biochemical. The protocol:
as §3, §4

Structures can show the parent of a compound that is named as a salt. Where only a bound is given, the exact number is not on record here.

Sequence of factor Xa (P00742 235-488 limits assumed): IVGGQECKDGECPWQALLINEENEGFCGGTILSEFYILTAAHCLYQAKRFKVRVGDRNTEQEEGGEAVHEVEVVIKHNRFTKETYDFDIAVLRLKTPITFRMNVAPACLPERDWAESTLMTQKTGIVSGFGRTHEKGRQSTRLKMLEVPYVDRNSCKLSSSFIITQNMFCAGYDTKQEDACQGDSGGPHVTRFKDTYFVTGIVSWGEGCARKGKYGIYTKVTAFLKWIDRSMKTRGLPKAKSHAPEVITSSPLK
Sequence of factor Xa (P00742 41-179 partner limits assumed): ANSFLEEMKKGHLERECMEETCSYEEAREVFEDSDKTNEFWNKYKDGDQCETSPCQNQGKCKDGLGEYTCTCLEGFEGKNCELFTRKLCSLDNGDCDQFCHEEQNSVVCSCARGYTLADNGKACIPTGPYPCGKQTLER

In the case of `N=C(N)Nc1ccc(CNC(=O)[C@@H]2CCCN2C(=O)[C@@H]2NCC[C@@H]3CCCC[C@@H]32)cc1` [Example 38, D-1-Piq-Pro-p-NHCH2C6H4NHC(NH)NH2·2HCl], the Kd at Human Thrombin was 909 nM; at factor Xa, over 1000 µM; at Trypsin, 14300 nM; at Plasmin, over 1 mM. In addition, in the experiment with human or animal plasma [1], the “Human Plasma Anticoagulation 2x Clotting time (ng/mL) TT” value came to 540 ng/mL. Moreover, in the experiment with human or animal plasma [2], the “Human Plasma Anticoagulation 2x Clotting time (ng/mL) APTT” value is 6,100 ng/mL. The “Human Plasma Anticoagulation 2x Clotting time (ng/mL) PT” value in the experiment on human or animal plasma [3] is recorded as 11,100 ng/mL.
As for `CCS(=O)(=O)N[C@H](CC1CCCCC1)C(=O)N1CCC[C@H]1C(=O)NCc1ccc(C(=N)N)cc1` [Example 80, EtSO2-D-Cha-Pro-4-NHCH2C6H4C(NH)NH2·HCl], the figures for the Kd on Human Thrombin and at Trypsin were 0.588 nM and 11.1 nM, respectively. Also, the “Human Plasma Anticoagulation 2x Clotting time (ng/mL) TT” value in the experiment with human or animal plasma [1] was found to be 4 ng/mL. Moreover, the “Human Plasma Anticoagulation 2x Clotting time (ng/mL) APTT” value in the experiment on human or animal plasma [2] is given as 40 ng/mL. Besides, the “Human Plasma Anticoagulation 2x Clotting time (ng/mL) PT” value in the experiment on human or animal plasma [3] was 130 ng/mL.
Taken in the same sequence, the figures for `CCS(=O)(=O)N[C@H](CC1CCCCC1)C(=O)N1CCC[C@H]1C(=O)NCc1ccc(CN)cc1` [Example 81, EtSO2-D-Cha-Pro-4-NHCH2C6H4CH2NH2·HCl] were 189 nM, 476 nM, 110 ng/mL, 1,500 ng/mL and 2,700 ng/mL.
On the same counts, the results for `CCS(=O)(=O)N[C@H](CC1CCCCC1)C(=O)N1CCC[C@H]1C(=O)NCc1ccnc(N)c1` [Example 83, EtSO2-D-Cha-Pro-4-NHCH2-2-aminopyridine·HCl] are 417 nM, 33300 nM, 91 ng/mL, 1,000 ng/mL and 1,300 ng/mL.
On the same counts, the results for `CCS(=O)(=O)N[C@H](CC1CCCCC1)C(=O)N1CCC[C@H]1C(=O)NCc1ccc(N)nc1` [Example 84, EtSO2-D-Cha-Pro-5-NHCH2-2-aminopyridine·HCl] are 345 nM, 14300 nM, 110 ng/mL, 1,500 ng/mL and 1,900 ng/mL.
In the case of `N=C(N)c1ccc(CNC(=O)[C@@H]2CCCN2C(=O)[C@@H](CC2CCCCC2)NCCCC(=O)O)cc1` [Example 85, HOOCCH2CH2CH2-D-Cha-Pro-p-NHCH2C6H4C(NH)NH2·HCl], the Kd at Human Thrombin is 3.77 nM; at Trypsin it was 32.5 nM. The “Human Plasma Anticoagulation 2x Clotting time (ng/mL) TT” value in the experiment with human or animal plasma [1] turned out to be 4.9 ng/mL. The “Human Plasma Anticoagulation 2x Clotting time (ng/mL) APTT” value in the experiment with human or animal plasma [2] came out at 100 ng/mL. In the experiment on human or animal plasma [3], the “Human Plasma Anticoagulation 2x Clotting time (ng/mL) PT” value is reported as 197 ng/mL.
With `N=C(N)c1ccc(CNC(=O)[C@@H]2CCCN2C(=O)[C@H](NCC(=O)O)C2CCCCC2)cc1` [Example 86, HOOCCH2-D-Chg-Pro-p-NHCH2C6H4C(NH)NH2·HCl], the Kd at Human Thrombin was 5 nM; at factor Xa, 1.59 µM. Besides, the “Human Plasma Anticoagulation 2x Clotting time (ng/mL) TT” value in the experiment on human or animal plasma [1] was 4 ng/mL. For the same compound, in the experiment with human or animal plasma [2], the “Human Plasma Anticoagulation 2x Clotting time (ng/mL) APTT” value is 81 ng/mL. In addition, in the experiment with human or animal plasma [3], the “Human Plasma Anticoagulation 2x Clotting time (ng/mL) PT” value is 180 ng/mL.
With `N=C(N)c1ccc(CNC(=O)[C@@H]2CCCN2C(=O)[C@@H](CCc2ccccc2)NCC(=O)O)cc1` [Example 87, HOOCCH2-D-hPhe-Pro-p-NHCH2C6H4C(NH)NH2·HCl], the values for the Kd on Human Thrombin and at factor Xa were 33.3 nM and 0.4 µM, respectively. The “Human Plasma Anticoagulation 2x Clotting time (ng/mL) TT” value in the experiment on human or animal plasma [1] is 9 ng/mL. For the same compound, the “Human Plasma Anticoagulation 2x Clotting time (ng/mL) APTT” value in the experiment with human or animal plasma [2] amounted to 260 ng/mL. Further, the “Human Plasma Anticoagulation 2x Clotting time (ng/mL) PT” value with human or animal plasma [3] was determined as 310 ng/mL.
On to `N=C(N)c1ccc(CNC(=O)[C@@H]2CCCN2C(=O)[C@@H](CCC2CCCCC2)NCC(=O)O)cc1` [Example 88, HOOCCH2-D-hCha-Pro-p-NHCH2C6H4C(NH)NH2·HCl], for which the Kd at Human Thrombin is 2.44 nM; at factor Xa it was 0.256 µM. For the same compound, the “Human Plasma Anticoagulation 2x Clotting time (ng/mL) TT” value in the experiment with human or animal plasma [1] is given as 4 ng/mL. Further, the “Human Plasma Anticoagulation 2x Clotting time (ng/mL) APTT” value in the experiment on human or animal plasma [2] worked out at 100 ng/mL. The “Human Plasma Anticoagulation 2x Clotting time (ng/mL) PT” value in the experiment on human or animal plasma [3] was 200 ng/mL.
Turning to `N=C(N)c1ccc(CNC(=O)CN(CCc2ccccc2)C(=O)CNCC(=O)O)cc1` [Example 89, HOOCCH2-Gly-N-C6H5CH2CH2Gly-p-NHCH2C6H4C(NH)NH2·HCl], the Kd was 7140 nM on Human Thrombin and 14.1 µM at factor Xa. Moreover, the “Human Plasma Anticoagulation 2x Clotting time (ng/mL) TT” value in the experiment on human or animal plasma [1] is listed as 570 ng/mL. Further, the “Human Plasma Anticoagulation 2x Clotting time (ng/mL) APTT” value in the experiment on human or animal plasma [2] is 51,000 ng/mL. Besides, the “Human Plasma Anticoagulation 2x Clotting time (ng/mL) PT” value in the experiment on human or animal plasma [3] is given as 37,000 ng/mL.
Regarding `CCC(CC)C(=O)N[C@@H](CCC(=O)O)C(=O)N1CCC[C@H]1C(=O)NCc1ccc(C(=N)N)cc1` [Example 90, (C2H5)2CHCO-Glu-Pro-p-NHCH2C6H4C(NH)NH2·HCl], the values for the Kd on Human Thrombin and at factor Xa were 1640 nM and 500 µM, respectively. In the experiment on human or animal plasma [1], the “Human Plasma Anticoagulation 2x Clotting time (ng/mL) TT” value amounted to 330 ng/mL. The “Human Plasma Anticoagulation 2x Clotting time (ng/mL) APTT” value in the experiment with human or animal plasma [2] is recorded as 14,500 ng/mL. Also, the “Human Plasma Anticoagulation 2x Clotting time (ng/mL) PT” value in the experiment on human or animal plasma [3] is reported as 14,600 ng/mL.
On the same counts, the results for `CCC(CC)C(=O)N[C@@H](CCS(C)(=O)=O)C(=O)N1CCC[C@H]1C(=O)NCc1ccc(C(=N)N)cc1` [Example 91, (C2H5)2CHCO-Met(O2)-Pro-p-NHCH2C6H4C(NH)NH2·HCl] are 278 nM, 143 µM, 63 ng/mL, 3,000 ng/mL and 3,500 ng/mL.
Regarding `CS(=O)(=O)CC(=O)N[C@H](CC1CCCCC1)C(=O)N1CCC[C@H]1C(=O)NCc1ccc(C(=N)N)cc1` [Example 92, MeSO2CH2CO-D-Cha-Pro-p-NHCH2C6H4C(NH)NH2·HCl], the figures for the Kd on Human Thrombin and on Trypsin were 7.69 nM and 130 nM, respectively. The “Human Plasma Anticoagulation 2x Clotting time (ng/mL) TT” value in the experiment on human or animal plasma [1] amounted to 8.9 ng/mL. In addition, the “Human Plasma Anticoagulation 2x Clotting time (ng/mL) APTT” value with human or animal plasma [2] was 210 ng/mL. Further, the “Human Plasma Anticoagulation 2x Clotting time (ng/mL) PT” value with human or animal plasma [3] turned out to be 340 ng/mL.
